# Experiments:
# S1P1 [1] = target: T1, S1P1 (Homo sapiens (Human), UniProt P21453); assay: S1P1 GTPγS binding assay; assay type: biochemical; settings: [35S]-GTPγS, membranes with high-expressed S1P1 (CHO-S1P1)
# Method: 1. S1P1GTPγS Binding Assay
# 2) T-75 cell culture plate; 150 mm cell culture dish
# 3) DMEM cell culture fluid; 10% (v/v) fetal bovine serum; 100 U/ml penicillin-100 μg/ml streptomycin; 2 mM […], 1 mg/ml G-418
# 4) Cell Lysis Buffer: HEPES 20 mM (pH 7.4), EDTA 10 mM
# 5) Stock solution: HEPES 20 mM, EDTA 0.1 mM
# 6) Binding Buffer; HEPES 20 mM (pH 7.4), NaCl 100 mM, MgCl2 5 mM, GDP 1 μM, BSA 0.1% (w/v), DMSO 2.5% (v/v),
# 7) Washing solution: NaH2PO4 10 mM (pH 7.4)
# The test compounds were dissolved in DMSO and prepared as a concentration of 20 mM.
# The concentrations of the compounds were detected ranging from 0.3 nM to 20 μM.
# Control group: […] SIP and SEW2871 were used as positive control and were purchased from Tocris company, and the binding buffet was as negative control.
# Test method: wetting membranes by saponin solution, and preparing [^35S]-GTPγS in binding solution (4×). The test compound was prepared as 4× of the final concentration which was then performed serial 3× dilution in 100% DMSO. Membranes with high-expressed S1P1 were collected in 5 ml binding buffer, and 50 μL was added to 96-well (containing 5 μg membrane protein with high-expressed S1P1). 25 μL, test compound was added in each well. The compound was incubated with the membranes for 30 min at room temperature, then 25 μL [^35S]-GTPγS was added, and the experiment was initiated. The 96-well detection plate was incubated for 1 hour at room temperature, filtered by filtermat B, and washed with washing solution for three times. After the plate was dried for 1 h at 50° C., 8 ml scintillator solution was added and counted using scintillation counter.
# Result Analysis and Determination of 50% Inhibitory Concentration (IC50):
# The IC50 value was calculated by using (Prism 4) software, and 50% inhibitory concentrations were obtained.
# S1P1 [2] = target: T1, S1P1; assay: S1P1 β-arrestin assay (PathHunter CHO-K1 EDG1); assay type: cell-based; settings: CHO-EDG-1 cells
# Method: 2.1 Experimental Materials: Path hunter express CHO-K1 EDG1 β-arrestin GPCR Assay was purchased from DiscoveRx, containing CHO-EDG-1 cells, buffers, substrate-1, substrate-2, cell culture fluid, 96-well cell culture plate.
# 1) The test compounds were dissolved in DMSO and prepared as a concentration of 20 mM.
# 2) The concentrations of the test compounds were detected ranging from […] to 20 μM.
# 4) Assay procedures: OCC culture solution was preheated in water tank at 37° C. Cells were taken out from liquor nitrogen tank, left on the dry-ice, and dissolved in water tank at 37° C. 0.5 ml OCC culture solution was added and blended slowly. The cells were diluted in 11.5 mL OCC culture solution, and 100 μL cell suspension (containing 8333 cells) was added to each well of the 96-well plate. The 96-well plate was incubated for 8 hours under 5% CO2 at 37° C., and 10 μL test compound dissolved in DMSO was added in; 10 μL DMSO was used as negative control. After the plate was incubated for 90 min at 37° C., 55 μL detection solution was added to each well. Then the results were read out by EnVision after the cell plate was incubated for 90 min at room temperature.
# The EC50 Value was Calculated by Using Prism 4 Software
# [3] = system: peripheral blood lymphocyte; assay: Effects on peripheral blood lymphocyte in mice; assay type: in vivo, Balb/c mice; settings: intragastric
# Method: 3. Effects of the Compounds in Example-21 and Example-22 on Peripheral Blood Lymphocyte in Mice
# 3.1 Experimental Materials:
# 1) 15% EDTA, PBS, EP tubes, 15 ml centrifuge tube, capillary tube, pipette tip were all purchased from Shanghai biological technology co., Ltd. Hemocyte analysis reagents were purchased from Shanghai Sysmex Company.
# 2) 35 Balb/c mice (female, 20-22 g), supplied by laboratory animal center of Jilin University.
# 3) Automated Hematology Analyzer (pocH-100 iV Diff) was purchased from Sysmex Company, Kobe, Japan.
# 1) The stock solutions of the compounds obtained in Example-21 and Example-22 were prepared with normal saline, and the concentrations are 2 mg/ml and 20 mg/ml, respectively.
# 2) The mice were divided into […], i.e., control group, low-dose experimental group, and high-dose experimental group. They were weighed and labeled well.
# 3) Before administration, supraorbital venous blood was collected with 20 μl/mouse which was added to anticoagulant tube containing EDTA, and nosed thoroughly. The numbers of lymphocytes were analyzed by pocH-100.
# 4) The control group was given normal saline: low-dose experimental groups were given the compounds obtained in Example-21 and Example-22 (5 mg/kg/d), high-dose experimental groups were given the compounds obtained in Example-21 and Example-22 (30 mg/kg/d), with liquid amount of 500 μl/mouse, by intragastric administration. Administration was performed for continuous four days, once a day. After 3.5 hours of the first and fourth administration, blood was collected respectively, and changes in the numbers of lymphocytes were analyzed by pocH-100.
# [4] = system: autoimmune multiple sclerosis (PLP139-151 immunized mice); assay: Experimental autoimmune multiple sclerosis; assay type: in vivo; settings: SJL/J mice, 5 and 30 mg/kg/d intragastric, 30 days
# [5] = system: experimental rheumatoid arthritis (bovine collagen type II immunized mice); assay: Experimental rheumatoid arthritis; assay type: in vivo; settings: DBA/1JLacJ mice, 5 and 30 mg/kg/d intragastric, 30 days
# [6] = system: peripheral blood lymphocyte; settings: general statement for FTY720; cited from earlier work
# T1 sequence (P21453 whole entry): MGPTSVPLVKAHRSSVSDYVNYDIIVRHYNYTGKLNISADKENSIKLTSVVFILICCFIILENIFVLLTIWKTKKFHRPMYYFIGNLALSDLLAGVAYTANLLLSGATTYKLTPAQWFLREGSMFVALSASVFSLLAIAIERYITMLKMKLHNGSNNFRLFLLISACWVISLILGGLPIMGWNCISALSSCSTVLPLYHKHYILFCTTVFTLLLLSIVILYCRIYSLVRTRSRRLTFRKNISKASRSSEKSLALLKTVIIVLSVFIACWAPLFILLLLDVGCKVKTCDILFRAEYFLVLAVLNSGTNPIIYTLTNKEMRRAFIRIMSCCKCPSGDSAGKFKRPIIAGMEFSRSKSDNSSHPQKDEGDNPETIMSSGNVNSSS
molecule,measurement,setting,value
"2-(7-amino-5,6,7,8-tetrahydro-7-naphthalenemethanol)-5-(3-methyl-4-isopropoxy)-1,3,4-oxdiazole [Example 22]",IC50,S1P1 [1],3 nM
same,EC50,S1P1 [2],8 nM
same,toxicity,"[3]; dose up to 30 mg/kg/d, four days",no toxicity effects
same,"behavior and weight of mice, pre- versus post-administration",[3]; four days,no differences
same,numbers of peripheral blood lymphocyte reduced compared to pre-administration,[3]; once a day for continuous four days,78%
same,effect on induction and development of autoimmune multiple sclerosis,[4],obviously inhibiting
same,effect on induction and development of autoimmune multiple sclerosis,[4]; listed as Example-22,remarkable inhibitory effects
same,effect on induction and development of experimental rheumatoid arthritis,[5],obviously inhibiting
same,effect on induction and development of experimental rheumatoid arthritis,[5]; listed as Example-22,remarkable inhibitory effects
CCCCCCCCc1ccc(CCC(N)(CO)CO)cc1 [FTY720],number of peripheral blood lymphocytes decreased,[6],70-80%
